Experimental data taken from ChEMBL document CHEMBL1201862, “PubChem BioAssay data set” (2004).
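Protocol summary: plate cells (96-well), add compound at 5 concentrations, incubate 48 h, interpolate endpoints linearly. GI50: concentration for 50% inhibition of growth.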 Calls of active or inactive are those of the source. No stated cut-off is given here; in the data, active = GI50 up to about 1.1 µM and inactive = higher.

What was measured:
Assay in all cases: NCI anticancer screen, dose series, 48 h
NCI-H522 = system: NCI-H522
HL-60 = system: HL-60
UACC-62 = system: UACC-62
BT-549 = system: BT-549
HCT-15 = system: HCT-15
SF-295 = system: SF-295
CCRF-CEM = system: CCRF-CEM
MDA-MB-231 = system: MDA-MB-231
NCI-H460 = system: NCI-H460
MDA-MB-435 = system: MDA-MB-435
TK-10 = system: TK-10
COLO 205 = system: COLO 205
786-0 = system: 786-0
HT-29 = system: HT-29
HOP-62 = system: HOP-62
K562 = system: K562
U-251 = system: U-251
SF-539 = system: SF-539
EKVX = system: EKVX

Measured: GI50

Cc1ncc([N+](=O)[O-])n1CCNC(=O)Cn1c([N+](=O)[O-])cnc1C
inactive: NCI-H522 > 100 µM | HL-60 > 100 µM | UACC-62 > 100 µM | BT-549 > 100 µM | SF-295 > 100 µM | CCRF-CEM > 100 µM | MDA-MB-231 > 100 µM | NCI-H460 > 100 µM | MDA-MB-435 > 100 µM | TK-10 > 100 µM | COLO 205 > 100 µM | 786-0 > 100 µM | HT-29 > 100 µM | HOP-62 > 100 µM | K562 > 100 µM | U-251 > 100 µM | SF-539 > 100 µM
> 100 µM: HCT-15

CCN1CN(c2ccccc2)C2(CCN(CC3COc4ccccc4O3)CC2)C1=O (configuration not stated)
inactive: NCI-H522 18 µM | HL-60 16.1 µM | UACC-62 23.3 µM | BT-549 16 µM | SF-295 39.9 µM | CCRF-CEM 18.4 µM | MDA-MB-231 2.57 µM | NCI-H460 18.2 µM | MDA-MB-435 23.3 µM | TK-10 25.8 µM | COLO 205 15.7 µM | 786-0 47.9 µM | HT-29 20.1 µM | HOP-62 35.6 µM | K562 37.9 µM | U-251 30.6 µM | SF-539 18.6 µM
20.5 µM: HCT-15

Clc1nc(Cl)c(-c2ccccc2)c(Cl)n1
inactive: NCI-H522 1.55 µM | HL-60 2.15 µM | UACC-62 3.09 µM | BT-549 2.61 µM | SF-295 12.7 µM | CCRF-CEM 2.27 µM | EKVX 1.8 µM | MDA-MB-231 3.24 µM | NCI-H460 13.4 µM | MDA-MB-435 3.24 µM | TK-10 10.1 µM | COLO 205 1.84 µM | 786-0 2.5 µM | HT-29 7.66 µM | HOP-62 16.9 µM | K562 2.9 µM | U-251 5.32 µM | SF-539 5.42 µM
2.42 µM: HCT-15

CC(C)/C(Cl)=N/OC(=O)Nc1cccc(C(F)(F)F)c1
inactive: UACC-62 13.6 µM | BT-549 3.64 µM | SF-295 18.3 µM | EKVX 2.61 µM | MDA-MB-231 6.68 µM | NCI-H460 17.8 µM | MDA-MB-435 11.8 µM | TK-10 3.5 µM | COLO 205 2.07 µM | 786-0 2.52 µM | HT-29 4.98 µM | HOP-62 18.1 µM | K562 1.54 µM | U-251 17 µM
1.82 µM: HCT-15
active: NCI-H522 0.14 µM | HL-60 0.778 µM | CCRF-CEM 0.532 µM

CCc1c2c([nH]c(=S)c1C#N)CCC2
inactive: NCI-H522 > 100 µM | HL-60 > 100 µM | UACC-62 > 100 µM | BT-549 > 100 µM | SF-295 > 100 µM | CCRF-CEM 48.8 µM | EKVX 16.9 µM | MDA-MB-231 > 100 µM | NCI-H460 > 100 µM | MDA-MB-435 > 100 µM | TK-10 > 100 µM | COLO 205 > 100 µM | 786-0 > 100 µM | HT-29 > 100 µM | HOP-62 > 100 µM | K562 > 100 µM | U-251 > 100 µM
> 100 µM: HCT-15

S=c1[nH]n2c(CCCCCCCCc3nnc4sc(=S)[nH]n34)nnc2s1
> 100 µM: HCT-15
inactive: NCI-H522 > 100 µM | HL-60 > 100 µM | UACC-62 > 100 µM | BT-549 > 100 µM | SF-295 > 100 µM | CCRF-CEM 83 µM | EKVX > 100 µM | MDA-MB-231 > 100 µM | NCI-H460 > 100 µM | MDA-MB-435 > 100 µM | COLO 205 > 100 µM | 786-0 > 100 µM | HT-29 > 100 µM | HOP-62 > 100 µM | K562 > 100 µM | U-251 > 100 µM | SF-539 > 100 µM

COc1nc2c(c(=O)[nH]1)N=C(c1ccc([N+](=O)[O-])cc1)CC(c1ccccc1)N2 (configuration not stated)
inactive: NCI-H522 66.4 µM | HL-60 16 µM | UACC-62 59.2 µM | BT-549 > 100 µM | SF-295 > 100 µM | CCRF-CEM 37.9 µM | EKVX 95.9 µM | MDA-MB-231 > 100 µM | NCI-H460 73.6 µM | MDA-MB-435 > 100 µM | COLO 205 > 100 µM | 786-0 > 100 µM | HT-29 > 100 µM | HOP-62 > 100 µM | K562 58.2 µM | U-251 > 100 µM | SF-539 > 100 µM

C=CCN(c1cc(OC)c(NC(C)=O)cc1[N+](=O)[O-])S(C)(=O)=O
inactive: HL-60 > 100 µM | UACC-62 > 100 µM | BT-549 > 100 µM | SF-295 > 100 µM | CCRF-CEM > 100 µM | EKVX > 100 µM | MDA-MB-231 > 100 µM | NCI-H460 > 100 µM | MDA-MB-435 > 100 µM | TK-10 > 100 µM | COLO 205 > 100 µM | 786-0 > 100 µM | HOP-62 > 100 µM | K562 > 100 µM | U-251 > 100 µM
active: NCI-H522 0.0349 µM
> 100 µM: HCT-15

COc1cccc2c(=O)oc(-c3ccc(C(C)(C)C)cc3)nc12
65.5 µM: HCT-15
inactive: NCI-H522 30.1 µM | HL-60 18.5 µM | UACC-62 > 100 µM | BT-549 44 µM | SF-295 69.7 µM | CCRF-CEM 33.7 µM | EKVX 63.7 µM | MDA-MB-231 58.1 µM | NCI-H460 65.8 µM | MDA-MB-435 59.7 µM | TK-10 > 100 µM | COLO 205 57 µM | 786-0 > 100 µM | HT-29 41.7 µM | HOP-62 48.2 µM | K562 > 100 µM | U-251 42.2 µM | SF-539 > 100 µM

Cc1ccc2c(c1)C1(C)OC(C=CC1=O)O2 (configuration not stated)
inactive: SF-295 2.79 µM | EKVX 2.45 µM | NCI-H460 2.21 µM | TK-10 1.4 µM | HOP-62 3.43 µM
active: NCI-H522 0.0769 µM | HL-60 0.104 µM | UACC-62 0.839 µM | BT-549 0.389 µM | CCRF-CEM 0.114 µM | MDA-MB-231 0.564 µM | MDA-MB-435 0.182 µM | COLO 205 0.384 µM | 786-0 0.261 µM | HT-29 0.267 µM | K562 0.147 µM | U-251 0.29 µM | SF-539 0.488 µM
0.265 µM: HCT-15

COC(=O)/C(C#N)=C(/NCCN)Nc1ccccc1
> 100 µM: HCT-15
inactive: NCI-H522 > 100 µM | HL-60 > 100 µM | BT-549 > 100 µM | SF-295 > 100 µM | EKVX > 100 µM | MDA-MB-231 > 100 µM | NCI-H460 > 100 µM | MDA-MB-435 > 100 µM | TK-10 > 100 µM | COLO 205 > 100 µM | 786-0 > 100 µM | HT-29 > 100 µM | HOP-62 > 100 µM | K562 > 100 µM | U-251 > 100 µM | SF-539 > 100 µM

Cc1ccc(NC(=O)c2cc(S(=O)(=O)Nc3n[nH]c(=O)n3-c3ccccc3)c(S)cc2Cl)cc1
> 100 µM: HCT-15
inactive: NCI-H522 > 100 µM | HL-60 > 100 µM | UACC-62 > 100 µM | BT-549 > 100 µM | EKVX > 100 µM | MDA-MB-231 > 100 µM | NCI-H460 > 100 µM | MDA-MB-435 > 100 µM | TK-10 > 100 µM | COLO 205 > 100 µM | 786-0 > 100 µM | HT-29 > 100 µM | K562 > 100 µM | U-251 > 100 µM | SF-539 > 100 µM

CC(=O)Oc1ccc2oc(=O)cc(C)c2c1
inactive: NCI-H522 > 100 µM | HL-60 > 100 µM | BT-549 > 100 µM | SF-295 > 100 µM | CCRF-CEM > 100 µM | EKVX > 100 µM | MDA-MB-231 > 100 µM | NCI-H460 > 100 µM | MDA-MB-435 > 100 µM | TK-10 > 100 µM | COLO 205 > 100 µM | 786-0 > 100 µM | HT-29 > 100 µM | HOP-62 > 100 µM | K562 > 100 µM | U-251 > 100 µM | SF-539 > 100 µM

Nc1nc(Cl)cc(NCC2(CO)CC(CCCc3ccccc3)C2)n1 (configuration not stated)
> 100 µM: HCT-15
inactive: NCI-H522 > 68.7 µM | HL-60 > 35.1 µM | UACC-62 > 100 µM | BT-549 > 100 µM | SF-295 > 33.2 µM | CCRF-CEM > 73.1 µM | EKVX > 25.3 µM | MDA-MB-231 > 100 µM | NCI-H460 > 69.5 µM | MDA-MB-435 > 100 µM | TK-10 > 77.4 µM | COLO 205 > 100 µM | 786-0 > 81.7 µM | HT-29 25.4 µM | HOP-62 > 100 µM | K562 2.11 µM | U-251 > 85.3 µM | SF-539 > 100 µM

O=C(CSc1nc2ccccc2s1)c1sc2sc3ccccc3[n+]2c1[O-]
inactive: NCI-H522 > 100 µM | HL-60 > 100 µM | UACC-62 > 100 µM | BT-549 > 100 µM | SF-295 > 100 µM | EKVX > 100 µM | MDA-MB-231 26.9 µM | NCI-H460 > 100 µM | MDA-MB-435 > 100 µM | TK-10 > 100 µM | COLO 205 > 100 µM | 786-0 > 100 µM | HT-29 > 100 µM | HOP-62 > 100 µM | K562 > 100 µM | U-251 > 100 µM | SF-539 > 100 µM
> 100 µM: HCT-15

COC(=O)[C@]1(c2cc3ccccc3[nH]2)CC2CNC1C1OC(C)(C)OC21 (some centres not stated)
inactive: NCI-H522 > 100 µM | HL-60 > 100 µM | UACC-62 > 100 µM | BT-549 > 100 µM | SF-295 > 100 µM | CCRF-CEM > 100 µM | EKVX > 100 µM | MDA-MB-231 64.7 µM | NCI-H460 > 100 µM | MDA-MB-435 84.5 µM | TK-10 > 100 µM | COLO 205 > 100 µM | 786-0 > 100 µM | HT-29 > 100 µM | HOP-62 > 100 µM | K562 73.6 µM | U-251 > 100 µM | SF-539 > 100 µM
> 100 µM: HCT-15
